Measured values reported in patent publication US11963966B2, “Compositions and methods for treating ovarian tumors” (Dana-Farber Cancer Institute, Inc., priority 2017, dated 2024).

Legend:
[1] = system: PDX model DF20 malignant ascites; assay: PDX model DF20, IP injected cancer cells (malignant ascites), IP JSI-124 vs vehicle, BLI; type: in vivo, mice
Description: (§1) FIG. 7A-FIG. 7E are a series of graphs and images that depict the impact of JAK/STAT-inhibition on spheroid formation in vivo and anti-tumor activity. […] Each of these were performed following intraperitoneal (IP) or subcutaneous (SC) injection of cancer cells followed by IP therapy with JSI-124 vs. vehicle. Each group includes 5 mice. The inverted triangle indicates the time=0 of cancer cell injection. […] Mice were injected IP with tumor cells and one week later started treatment for a total 14 days. Each group includes 5 mice. Y-axis indicates log of bioluminescence imaging (BLI) signal (log total flux in p/s). Values are given as mean of log BLI signal, error bars indicate standard deviation from the mean. ***p<0.0001 (two-sided t test comparing mean±STDEV at Day 15 of treatment). […] Each group includes 5 mice. Y-axis indicates log BLI signal (log total flux in p/s). Values are given as mean of log BLI signal, error bars indicate standard deviation from the mean. ***p<0.0001 (two-sided t test comparing mean±STDEV at Day 15 of treatment). […] Mice were injected SC with tumor cells and one week later started treatment for a total 14 days. Each group includes 5 mice. Y-axis indicates log BLI signal (log total flux in p/s). Values are given as mean of log BLI signal, error bars indicate standard deviation from the mean. ***p<0.0001 (two-sided t test comparing mean±STDEV at Day 15 of treatment). […] Each group includes 5 mice. Y-axis indicates log BLI signal (log total flux in p/s). Values are given as mean of log BLI signal, error bars indicate standard deviation from the mean. ***p<0.0001 (two-sided t test comparing mean±STDEV at Day 15 of treatment).

[2] = system: STAT3 activity in Heya8 cells; assay: STAT3-dependent luciferase assay after oncostatin M (OSM) stimulation; type: cell-based; details: Heya8 cells pre-treated 1 hour vs DMSO, then OSM stimulation
[3] = system: PDX model DF20 SC tumors; assay: PDX model DF20, SC injected cancer cells, IP JSI-124 vs vehicle, BLI; type: in vivo, mice
Description: as §1
A frequently used treatment modality for advanced ovarian cancer is the intraperitoneal administration of chemotherapy, such as cisplatin, which has local effects, but is also systemically reabsorbed to treat potential metastatic disease. […] Tumor growth was compared following IP JSI-124 treatment v. vehicle.

[4] = ascites allowed to form 3 weeks, then IP treatment 14 days
[5] = tumor cells IP, 7 days growth, then 14 days IP therapy
[6] = SC tumors established 3 weeks, then IP treatment 14 days
[7] = SC tumors established 7 days, then 14 days IP therapy

With CC(C)(O)/C=C/C(=O)[C@](C)(O)[C@H]1[C@@H](O)C[C@@]2(C)[C@@H]3CC=C4[C@H](C=C(O)C(=O)C4(C)C)[C@]3(C)C(=O)C[C@]12C [JSI-124, cucurbitacin I] as the molecule, how does the “BLI signal of established malignant ascites” value [1, 4] read?
Its value is “significant reduction in BLI signal of malignant ascites”.

And the “mean day 15 log BLI signal±standard deviation” value [1, 4]?
Its value is 1.29×10^9±6×10^8 p/s.

What about the “Development of malignant ascites” value [1, 5] of the same molecule?
The value was “completely abrogated development of malignant ascites”.

What about the “mean day 15 log BLI signal±standard deviation” value [1, 5] of the same molecule?
Its value is 1.47×10^8±6.5×10^7 p/s.

What about the STAT3-dependent luciferase activity [2] of the same molecule?
Its STAT3-dependent luciferase activity is “significant reduction in STAT-dependent expression”.

And the “Established SC tumors” value [3, 6]?
Its value is “significant and near complete elimination of SC tumors”.

And the “mean day 15 log BLI signal±standard deviation” value [3, 6]?
Its value is 8.52×10^8±3.1×10^8 p/s.

And the “Growth of SC tumors” value [3, 7]?
Its value is “significantly inhibit development of tumors growth of SC tumors”.

What about the “mean day 15 log BLI signal±standard deviation” value [3, 7] of the same molecule?
Its value is 5.55×10^8±2.2×10^8 p/s.
